The source of these data is article PMC6282443 (Journal of Enzyme Inhibition and Medicinal Chemistry, 2018).

Like-named read-outs stand apart in the source and are kept apart here. A value given as a limit tells only on which side of the number the result lay.

What all share (type): cell-based, human
The subject of assay [1] is HepG2 cells. Briefly: MTT anti-proliferative assay, HepG2. As to conditions: read-out: Anti-proliferative activity IC50, HepG2. In general terms: Tetrazolium assays rely on reduction of a dye to a coloured formazan, in cell work by metabolically active cells.
In assay [2] the test system is A549 cells. Briefly: cells. As to conditions: read-out: Anti-proliferative activity IC50, A549.
Assay [3] concerns MCF-7 cells. As to the kind of experiment: MTT anti-proliferative assay, MCF-7. Particulars: read-out: Anti-proliferative activity IC50, MCF-7.
The subject of assay [4] is H1975 cells. Particulars: H1975, MTT; for IC50: read-out: Anti-proliferative activity IC50, H1975, 72 h.

The IC50 is the concentration needed to halve the response being measured. `COc1cc2ncnc(Nc3ccc(F)c(Cl)c3)c2cc1NC(=O)N/N=C/c1ccc(N2CCCC2)nc1` [Compound 17, (E)-N-(4-((3-chloro-4-fluorophenyl)amino)-7-methoxyquinazolin-6-yl)-2-((6-(pyrrolidin-1-yl)pyridin-3-yl)methylene) hydrazine-1-carboxamide]: the IC50 came out at 13.2 ± 1.31 µM in assay [1] (HepG2, MTT, 72 h); 14.6 ± 1.21 µM in assay [2] (A549, MTT, 72 h); 12.9 ± 1.12 µM in assay [3] (MCF-7, MTT, 72 h); 35.3 ± 2.35 µM in assay [4].
Turning to `COc1cc2ncnc(Nc3ccc(F)c(Cl)c3)c2cc1NC(=O)N/N=C/c1ccc(CN(C)C)cc1` [Compound 19, (E)-N-(4-((3-chloro-4-fluorophenyl)amino)-7-methoxyquinazolin-6-yl)-2-(4-((dimethylamino)methyl)benzylidene)hydrazine-1-carboxamide], the IC50 in assay [1] (Homo sapiens, HepG2, 72 h) amounted to 9.89 ± 0.96 µM; in assay [2] (Homo sapiens, A549, 72 h), 7.99 ± 0.82 µM; in assay [3] (Homo sapiens, MCF7, 72 h) it was 3.8 ± 0.22 µM. Further, in assay [4], the “inhibitory activity against H1975 cells (in words)” value (shortened to “inhibitory activity”) was “moderate inhibitory activity”.
`CCN(CC)Cc1ccc(/C=N/NC(=O)Nc2cc3c(Nc4ccc(F)c(Cl)c4)ncnc3cc2OC)cc1` [Compound 20, (E)-N-(4-((3-chloro-4-fluorophenyl)amino)-7-methoxyquinazolin-6-yl)-2-(4-((diethylamino)methyl)benzylidene)hydrazine-1-carboxamide]: the IC50 in assay [1] (Homo sapiens, HepG2, 72 h) was 9.49 ± 0.47 µM; in assay [2] (Homo sapiens, A549, 72 h) it was 8.71 ± 0.54 µM; in assay [3] (Homo sapiens, MCF7, 72 h) it was 4.14 ± 0.57 µM. For the same compound, the “inhibitory activity” value in assay [4] is given as “poorer cellular activity”.
In the same order, the values of `COc1cc2ncnc(Nc3ccc(F)c(Cl)c3)c2cc1NC(=O)N/N=C/c1ccc(CN2CCCC2)cc1` [Compound 21, (E)-N-(4-((3-chloro-4-fluorophenyl)amino)-7-methoxyquinazolin-6-yl)-2-(4-(pyrrolidin-1-ylmethyl)benzylidene)hydrazine-1-carboxamide] are 21.3 ± 1.47 µM, 17.8 ± 1.22 µM, 8.9 ± 0.48 µM and “moderate inhibitory activity”.
Regarding `COc1cc2ncnc(Nc3ccc(F)c(Cl)c3)c2cc1NC(=O)N/N=C/c1ccc(CN2CCN(C)CC2)cc1` [Compound 24, (E)-N-(4-((3-chloro-4-fluorophenyl)amino)-7-methoxyquinazolin-6-yl)-2-(4-((4-methylpiperazin-1-yl)methyl)benzylidene)hydrazine-1-carboxamide], the IC50 was determined as 2.86 ± 0.13 µM in assay [1] (Homo sapiens, HepG2, 72 h); 4.32 ± 0.61 µM in assay [2] (Homo sapiens, A549, 72 h); 3.12 ± 0.38 µM in assay [3] (Homo sapiens, MCF7, 72 h). In assay [4], the “inhibitory activity” value is given as “moderate inhibitory activity”.
In the case of `CN(C)Cc1ccc(/C=N/NC(=O)Nc2cc3c(Nc4ccc(F)c(Cl)c4)ncnc3cc2O[C@H]2CCOC2)cc1` [Compound 25, (S,E)-N-(4-((3-chloro-4-fluorophenyl)amino)-7-((tetrahydrofuran-3-yl)oxy)quinazolin-6-yl)-2-(4-((dimethylamino)methyl)benzylidene)hydrazine-1-carboxamide], the IC50 came out at 3.76 ± 0.21 µM in assay [1] (Homo sapiens, HepG2, 72 h); 4.13 ± 0.54 µM in assay [2] (Homo sapiens, A549, 72 h); 4.41 ± 0.28 µM in assay [3] (Homo sapiens, MCF7, 72 h). Besides, in assay [4], the “inhibitory activity” value is “poorer cellular activity”.
For `COc1cc2ncnc(Nc3ccc(F)c(Cl)c3)c2cc1NC(=O)N/N=C/c1ccc(OCCN(C)C)cc1` [Compound 31, (E)-N-(4-((3-chloro-4-fluoropheny)amino)-7-methoxyquinazolin-6-yl)-2-(4-(2-(dimethylamino)ethoxy)benzylidene)hydrazine-1-carboxamide], the IC50 in assay [1] (HepG2, MTT, 72 h) was 36.3 ± 2.57 µM; in assay [2] (A549, MTT, 72 h), 40.1 ± 4.03 µM; in assay [3] (MCF-7, MTT, 72 h), 37.2 ± 2.89 µM; in assay [4], 45.3 ± 3.34 µM.
Regarding `CCN(CC)CCOc1ccc(/C=N/NC(=O)Nc2cc3c(Nc4ccc(F)c(Cl)c4)ncnc3cc2OC)cc1` [Compound 32, (E)-N-(4-((3-chloro-4-fluoropheny)amino)-7-methoxyquinazolin-6-yl)-2-(4-(2-(diethylamino)ethoxy)benzylidene)hydrazine-1-carboxamide], the IC50 in assay [1] (HepG2, MTT, 72 h) is 13.2 ± 1.03 µM; in assay [2] (A549, MTT, 72 h) it was 8.62 ± 1.13 µM; in assay [3] (MCF-7, MTT, 72 h) it was 12.5 ± 1.24 µM; in assay [4] it was 32.6 ± 3.45 µM. In addition, the “inhibitory activity” value in assay [4] was “poorer cellular activity”.
In the case of `COc1cc2ncnc(Nc3ccc(F)c(Cl)c3)c2cc1NC(=O)N/N=C/c1ccc(OCCN2CCCCC2)cc1` [Compound 34, (E)-N-(4-((3-chloro-4-fluoropheny)amino)-7-methoxyquinazolin-6-yl)-2-(4-(2-(piperidin-1-yl)ethoxy)benzylidene)hydrazine-1-carboxamide], the IC50 in assay [1] (HepG2, MTT, 72 h) is 12.7 ± 1.25 µM; in assay [2] (A549, MTT, 72 h), 10.8 ± 1.43 µM; in assay [3] (MCF-7, MTT, 72 h) it was 9.21 ± 1.16 µM; in assay [4] it was 61.6 ± 5.67 µM. Moreover, the “inhibitory activity” value in assay [4] is recorded as “poorer cellular activity”.
Turning to `COc1cc2ncnc(Nc3ccc(Cl)c(F)c3)c2cc1NC(=O)N/N=C/c1ccc(OCCN2CCOCC2)cc1` [Compound 35, (E)-N-(4-((4-chloro-3-fluorophenyl)amino)-7-methoxyquinazolin-6-yl)-2-(4-(2-morpholinoethoxy)benzylidene) hydrazine-1-carboxamide], the IC50 in assay [1] (HepG2, MTT, 72 h) was determined as 16.5 ± 1.42 µM; in assay [2] (A549, MTT, 72 h), 19.5 ± 1.35 µM; in assay [3] (MCF-7, MTT, 72 h) it was 21.8 ± 1.34 µM; in assay [4], 25.2 ± 1.35 µM.
For the compound `COc1cc2ncnc(Nc3ccc(F)c(Cl)c3)c2cc1NC(=O)N/N=C/c1ccc(OCCN2CCN(C)CC2)cc1` [Compound 36, (E)-N-(4-((3-chloro-4-fluoropheny)amino)-7-methoxyquinazolin-6-yl)-2-(4-(2-(4-methylpiperazin-1-yl)ethoxy)benzylidene)hydrazine-1-carboxamide], the IC50 in assay [1] (HepG2, MTT, 72 h) is 10.2 ± 1.09 µM; in assay [2] (A549, MTT, 72 h) it was 11.4 ± 1.07 µM; in assay [3] (MCF-7, MTT, 72 h), 6.2 ± 0.81 µM; in assay [4], 24.7 ± 1.86 µM. In addition, in assay [4], the “inhibitory activity” value was “poorer cellular activity”.
The matching figures for `CN(C)CCOc1ccc(/C=N/NC(=O)Nc2cc3c(Nc4ccc(F)c(Cl)c4)ncnc3cc2O[C@H]2CCOC2)cc1` [Compound 37, (S,E)-N-(4-((3-chloro-4-fluoropheny)amino)-7-((tetrahydrofuran-3-yl)oxy)quinazolin-6-yl)-2-(4-(2-(dimethylamino)ethoxy)benzylidene)hydrazine-1-carboxamide]: 8.2 ± 0.81 µM, 14.7 ± 1.35 µM, 11.7 ± 1.34 µM, 10.2 ± 1.12 µM and “moderate inhibitory activity”.
Regarding `O=C(N/N=C/c1ccc(OCCN2CCCC2)cc1)Nc1cc2c(Nc3ccc(F)c(Cl)c3)ncnc2cc1O[C@H]1CCOC1` [Compound 39, (S,E)-N-(4-((3-chloro-4-fluoropheny)amino)-7-((tetrahydrofuran-3-yl)oxy)quinazolin-6-yl)-2-(4-(2-(pyrrolidin-1-yl)ethoxy)benzylidene)hydrazine-1-carboxamide], the concentration for half-maximal inhibition (IC50) in assay [1] (HepG2, MTT, 72 h) is 67.3 ± 6.24 µM; in assay [2] (A549, MTT, 72 h), 63.9 ± 5.35 µM; in assay [3] (MCF-7, MTT, 72 h), 64.8 ± 5.35 µM; in assay [4], greater than 100 µM.
In the same order, the values of `O=C(N/N=C/c1ccc(OCCN2CCCCC2)cc1)Nc1cc2c(Nc3ccc(F)c(Cl)c3)ncnc2cc1O[C@H]1CCOC1` [Compound 40, (S,E)-N-(4-((3-chloro-4-fluoropheny)amino)-7-((tetrahydrofuran-3-yl)oxy)quinazolin-6-yl)-2-(4-(2-(piperidin-1-yl)ethoxy)benzylidene)hydrazine-1-carboxamide] are 17.4 ± 1.24 µM, 24.2 ± 1.24 µM, 24.2 ± 1.23 µM and 35.3 ± 2.35 µM.
As to `O=C(N/N=C/c1ccc(OCCN2CCOCC2)cc1)Nc1cc2c(Nc3ccc(F)c(Cl)c3)ncnc2cc1O[C@H]1CCOC1` [Compound 41, (S,E)-N-(4-((3-chloro-4-fluoropheny)amino)-7-((tetrahydrofuran-3-yl)oxy)quinazolin-6-yl)-2-(4-(2-morpholinoethoxy)benzylidene)hydrazine-1-carboxamide], the IC50 is 40.2 ± 3.04 µM in assay [1] (HepG2, MTT, 72 h); 37.8 ± 2.54 µM in assay [2] (A549, MTT, 72 h); 28.8 ± 1.29 µM in assay [3] (MCF-7, MTT, 72 h); 25.5 ± 1.44 µM in assay [4].
In the same order, the values of `COc1cc2ncnc(Nc3ccc(F)c(Cl)c3)c2cc1NC(=O)N/N=C/c1ccc(OCCCN2CCCCC2)cc1` [Compound 46, (E)-N-(4-((3-chloro-4-fluoropheny)amino)-7-methoxyquinazolin-6-yl)-2-(4-(3-(piperidin-1-yl)propoxy)benzylidene)hydrazine-1-carboxamide] are 9.58 ± 0.94 µM, 4.01 ± 0.56 µM, 6.85 ± 0.65 µM and 3.1 ± 0.49 µM.
For `COc1cc2ncnc(Nc3ccc(F)c(Cl)c3)c2cc1NC(=O)N/N=C/c1ccc(OCCCN2CCOCC2)cc1` [Compound 47, (E)-N-(4-((3-chloro-4-fluoropheny)amino)-7-methoxyquinazolin-6-yl)-2-(4-(3-morpholinopropoxy)benzylidene)hydrazine-1-carboxamide], the IC50 was found to be 28.4 ± 1.78 µM in assay [1] (HepG2, MTT, 72 h); 34.8 ± 1.26 µM in assay [2] (A549, MTT, 72 h); 27.5 ± 1.29 µM in assay [3] (MCF-7, MTT, 72 h); 41.2 ± 2.07 µM in assay [4].
Regarding “(E)-N-(4-((3-chloro-4-fluoropheny)amino)-7-methoxyquinazolin-6-yl)-2-(4-(2-(pyrrolidin-1-yl)ethoxy)benzylid ene)hydrazine-1-carboxamide [Compound 33]”, the IC50 in assay [1] (HepG2, MTT, 72 h) came to 46.7 ± 4.46 µM; in assay [2] (A549, MTT, 72 h), 36.4 ± 2.78 µM; in assay [3] (MCF-7, MTT, 72 h), 44.2 ± 3.75 µM; in assay [4], 49.3 ± 4.68 µM.
Turning to “(E)-N-(4-((3-chloro-4-fluoropheny)amino)-7-methoxyquinazolin-6-yl)-2-(4-(3-(4-methylpiperazin-1-yl)propoxy) benzylidene)hydrazine-1-carboxamide [Compound 48]”, the IC50 was 14.5 ± 1.27 µM in assay [1] (HepG2, MTT, 72 h); 2.96 ± 0.36 µM in assay [2] (A549, MTT, 72 h); 12.2 ± 0.89 µM in assay [3] (MCF-7, MTT, 72 h); 10.2 ± 1.26 µM in assay [4]. Further, the “inhibitory activity” value in assay [4] is listed as “moderate inhibitory activity”.
